The source of these data is article PMC9867442, “Indole Derivatives Bearing Imidazole, Benzothiazole-2-Thione or Benzoxazole-2-Thione Moieties—Synthesis, Structure and Evaluation of Their Cytoprotective, Antioxidant, Antibacterial and Fungicidal Activities” (Molecules, 2023).

The inhibition of growth is the relative decrease from the control value, in per cent. What is called melting point is the temperature, or range, at which the solid turns liquid.

Data set [1] relates to Escherichia coli. Briefly: Antibacterial well-diffusion method. Conditions: 0.1 mL of compound in DMSO, 48 h, 37 °C. In kind it is cell-based. On the procedure: (§1) The antimicrobial properties of compounds were determined against selected bacteria: Micrococcus luteus, Bacillus subtilis, Escherichia coli and Pseudomonas fluorescens which came from the collection of Pure Cultures of the Facility of Microbiology of the Department of Soil Science and Microbiology of the Poznan University of Life Sciences. The well-diffusion method was used to evaluate the antimicrobial properties of compounds. 6 mL each of liquidized broth medium was poured into sterile Petri dishes and allowed to solidify. After which, two sterile glass rings with a diameter of 0.5 cm were placed on the surface of each plate. Then 20 mL each of liquid broth medium containing suspensions of the tested bacterial strains at a density of 10^7 cells/cm3, obtained from 48-h cultures on broth […], was introduced. After the medium solidified, the glass rings were removed with a pencil, obtaining two wells on each plate. 0.1 mL of compound dissolved in pure dimethyl sulphoxide was introduced into one well, and 0.1 mL of pure dimethyl sulphoxide was introduced into the other well, which was as a control. Each compound was tested in four replicates. The plates were incubated for 48 h in a thermostat at 27 °C for M. luteus, B. subtilis and P. fluorescens cultures, and the E. coli culture at 37 °C. At the end of the incubation, the diameters of growth inhibition of the tested strains were measured using calipers.

For data set [2], the system named is Micrococcus luteus. Briefly: Antibacterial well-diffusion method. In kind it is cell-based. Conditions: Micrococus luteus, 0.1 mL of compound in DMSO, 48 h, 27 °C. The method, then:
as §1
On the technique in general: A growth-free zone around the sample is the usual read-out of agar diffusion tests.

The test system of data set [3] is Bacillus subtilis. The data set is described as follows: Antibacterial well-diffusion method. In kind it is cell-based. Conditions: 0.1 mL of compound in DMSO, 48 h, 27 °C. The method, then:
as §1

The test system of data set [4] is Pseudomonas fluorescens. Briefly: Antibacterial well-diffusion method. In kind it is cell-based. Conditions: 0.1 mL of compound in DMSO, 48 h, 27 °C. The method, then:
as §1

A short description of data set [5]: Ferrous ions (Fe2+) chelating activity (ferrozine). Conditions: 0.1 mg/mL, 10 min, room temperature. On the procedure: Ferrous ions (Fe^2+) chelating activity was evaluated by inhibition of the formation of Fe^2+-ferrozine complex after incubation of the compounds tested with Fe^2+. The Fe^2+-chelating ability of compounds tested was determined by the absorbance of the ferrous ion-ferrozine complex at 562 nm. In brief, 0.1 mg/mL concentration of the compounds tested in 0.2 mL ethyl alcohol were added to a solution of 0.6 mM FeCl2 (0.05 mL). EDTA (ethylenediaminetetraacetic acid) was used as the standard EDTA chelating agent. The reaction was started by the addition of 5 mM ferrozine (0.05 mL) in ethyl alcohol and shaken vigorously immediately. The samples were stored for 10 min at room temperature (~22 °C). Following incubation, the absorbance (Abs) of the solutions was measured at 562 nm in a spectrophotometer. The percentage of inhibition of ferrozine—Fe^2+ complex formation was calculated using the equation: Fe^2+ chelating effect (%) = [1 − (Abs1/Abs0)] × 100% where Abs0 is the absorbance of the sample without the tested compound and Abs1 is the absorbance in the presence of the compound tested. Each sample was made in triplicate, and three independent experiments were performed.

Data set [6] relates to Coriolus versicolor (Cv). Briefly: Antifungal agar-plate method. Conditions: for inhibition of growth at 0.0001 % / inhibition of growth at 0.001 % / inhibition of growth at 0.01 % / inhibition of growth at 0.1 %: Trametes versicolor, read-out: Antifungal activity (inhibition of mycelial growth). In kind it is cell-based. The method, then: (§2) Fungal strains: Coriolus versicolor (Cv), Poria placenta (Pp), Coniophora puteana (Cp) and Gloeophyllum trabeum (Gt) were used as a test organism for the experimental determination of the antifungal activity of 1–11. The fungus were obtained from the collection of the Department of Wood Chemical Technology, Faculty of Forestry and Wood Technology, Poznań, University of Life Sciences, Poland. The fungal growth rates were measured in 90 mm-diameter plastic dishes using the agar-plate method, described by Ważny and Thorton. Five concentrations of gramine and its derivatives in the range of 0.1% to 0.00001% were studied. The compound was applied on the agar (2% agar and 5% malt-extract) prepared on the Petri dish and previously autoclaved. The combination of the compound and fungus was repeated three times. Given sample was centrally inoculated with a 5 mm diameter disc taken from the submargin of 5-day-old malt agar plates. The plates were incubated in darkness at 21 ± 2 °C and 70 ± 5% relative air humidity. The growth duration was determined by the total coverage of the reference plate. The radius of the area covered by the fungus compared with the reference agar plate was employed to calculate the effective doses, ED50, of preservative concentrations retarding the fungal growth rate by 50%.

The subject of data set [7] is Gloeophyllum trabeum (Gt). The data set is described as follows: Antifungal agar-plate method. Conditions: for inhibition of growth at 0.0001 % / inhibition of growth at 0.001 % / inhibition of growth at 0.01 % / inhibition of growth at 0.1 %: Gloeophyllum trabeum, read-out: Antifungal activity (inhibition of mycelial growth). In kind it is cell-based. On the procedure:
as §2

The subject of data set [8] is Coniophora puteana (Cp). The data set is described as follows: Antifungal agar-plate method. In kind it is cell-based. Conditions: for inhibition of growth at 0.0001 % / inhibition of growth at 0.001 % / inhibition of growth at 0.01 % / inhibition of growth at 0.1 %: Coniophora puteana, read-out: Antifungal activity (inhibition of mycelial growth). On the procedure: as §2

For data set [9], the system named is Poria placenta (Pp). Briefly: Antifungal agar-plate method. Conditions: for inhibition of growth at 0.0001 % / inhibition of growth at 0.001 % / inhibition of growth at 0.01 % / inhibition of growth at 0.1 %: read-out: Antifungal activity (inhibition of mycelial growth). In kind it is cell-based. The method, then: as §2

Regarding “3-((2-phenyl-2,5-dihydro-1H-imidazol-1-yl)methyl)-1H-indole [Compound 8]”, the “Zone of Growth Inhibition” value in data set [1] amounted to 5 mm; in [2], 8.6 mm; in data set [3] it was 3.7 mm; in [4], 0 mm. Further, in data set [5], the Chelating activity is given as 40%. The “Antifungal activity (inhibition of mycelial growth)” value in data set [6] (concentration 0.0001%) turned out to be 7%; in data set [6] (concentration 0.001%), 13%; in data set [6] (concentration 0.01%) it was 41%; in data set [6] (concentration 0.1%) it was 100%; in [7] (concentration 0.0001%), 13%; in [7] (concentration 0.001%) it was 18%. Moreover, the “Antifungal activity (inhibition of mycelial growth)” value in data set [7] (concentration 0.01%) is reported as 53%; in data set [7] (concentration 0.1%) it was 100%; in data set [8] (concentration 0.0001%), 0%; in [8] (concentration 0.001%), 0%; in data set [8] (concentration 0.01%) it was 48%; in [8] (concentration 0.1%), 100%. In addition, the “Antifungal activity (inhibition of mycelial growth)” value in data set [9] (concentration 0.0001%) was found to be 0%; in data set [9] (concentration 0.001%), 17%; in data set [9] (concentration 0.01%), 45%; in [9] (concentration 0.1%), 100%.
As for `Clc1ncn(Cc2c[nH]c3ccccc23)c1Cl` [Compound 7, 3-((4,5-dichloro-1H-imidazol-1-yl)methyl)-1H-indole], the “Zone of Growth Inhibition” value in [1] turned out to be 4.3 mm; in [2], 5 mm; in data set [3] it was 8.7 mm; in data set [4] it was 0 mm. Besides, the Chelating activity entry in [5] is “no chelating activity”. Besides, the inhibition of growth at 0.0001 % in [6] (concentration 0.0001%) stood at 0%; in [7] (concentration 0.0001%) it was 28%; in data set [8] (concentration 0.0001%) it was 0%; in data set [9] (concentration 0.0001%), 0%. Moreover, the inhibition of growth at 0.001 % stood at 23% in [6] (concentration 0.001%), 51% in [7] (concentration 0.001%), 46% in data set [8] (concentration 0.001%) and 35% in [9] (concentration 0.001%). Further, the inhibition of growth at 0.01 % in data set [6] (concentration 0.01%) turned out to be 96%; in data set [7] (concentration 0.01%), 91%; in [8] (concentration 0.01%), 74%; in [9] (concentration 0.01%), 78%. Besides, the inhibition of growth at 0.1 % in data set [6] (concentration 0.1%) and in [7] (concentration 0.1%) was > 90% each time.
The compound `S=c1sc2ccccc2n1Cc1c[nH]c2ccccc12` [Compound 10, 3-((1H-indol-3-yl)methyl)benzo[d]thiazole-2(3H)-thione] had a melting point of 187 to 190 °C. The “Zone of Growth Inhibition” value in data set [1] amounted to 1 mm. Moreover, in data set [2], the “Zone of Growth Inhibition” value is on record as 2.6 mm. Moreover, the “Zone of Growth Inhibition” value in data set [3] worked out at 0 mm. Further, the “Zone of Growth Inhibition” value in data set [4] was determined as 0 mm. In data set [5], this compound gave a Chelating activity of 12%. Besides, the inhibition of growth at 0.0001 % in data set [6] (concentration 0.0001%) was 0%. In addition, the inhibition of growth at 0.001 % in data set [6] (concentration 0.001%) was 20%. In [6] (concentration 0.01%), the inhibition of growth at 0.01 % was 49%. In addition, the inhibition of growth at 0.1 % in [6] (concentration 0.1%) stood at 100%. Further, the inhibition of growth at 0.0001 % in data set [7] (concentration 0.0001%) is 0%. For the same compound, the inhibition of growth at 0.001 % in [7] (concentration 0.001%) came to 38%. Besides, in data set [7] (concentration 0.01%), the inhibition of growth at 0.01 % was 59%. For the same compound, the inhibition of growth at 0.1 % in [7] (concentration 0.1%) was 100%. The inhibition of growth at 0.0001 % in [8] (concentration 0.0001%) was 0%. In addition, the inhibition of growth at 0.001 % in data set [8] (concentration 0.001%) is 40%. Besides, the inhibition of growth at 0.01 % in data set [8] (concentration 0.01%) was 57%. Further, the inhibition of growth at 0.1 % in data set [8] (concentration 0.1%) turned out to be 100%. In [9] (concentration 0.0001%), the inhibition of growth at 0.0001 % was 34%. Also, the inhibition of growth at 0.001 % in [9] (concentration 0.001%) amounted to 54%. In addition, the inhibition of growth at 0.01 % in [9] (concentration 0.01%) was 71%. Moreover, in data set [9] (concentration 0.1%), the inhibition of growth at 0.1 % was 100%.
In turn, `S=c1oc2ccccc2n1Cc1c[nH]c2ccccc12` [Compound 11, 3-((1H-indol-3-yl)methyl)benzo[d]oxazole-2(3H)-thione] showed a melting point of 157 to 159 °C. Also, the “Zone of Growth Inhibition” value in data set [1] came out at 2.7 mm. The “Zone of Growth Inhibition” value in [2] was determined as 4 mm. For the same compound, in [3], the “Zone of Growth Inhibition” value is 0 mm. The “Zone of Growth Inhibition” value in data set [4] is on record as 0 mm. Further, in [5], the Chelating activity amounted to 29%. Further, the inhibition of growth at 0.0001 % in data set [6] (concentration 0.0001%) was 0%. Besides, in data set [6] (concentration 0.001%), the inhibition of growth at 0.001 % came to 2%. The inhibition of growth at 0.01 % in data set [6] (concentration 0.01%) came to 26%. Further, in data set [6] (concentration 0.1%), the inhibition of growth at 0.1 % came out at 100%. For the same compound, in data set [7] (concentration 0.0001%), the inhibition of growth at 0.0001 % came to 17%. The inhibition of growth at 0.001 % in data set [7] (concentration 0.001%) worked out at 39%. Besides, in [7] (concentration 0.01%), the inhibition of growth at 0.01 % stood at 47%. The inhibition of growth at 0.1 % in data set [7] (concentration 0.1%) worked out at 100%. Further, the inhibition of growth at 0.0001 % in data set [8] (concentration 0.0001%) was found to be 0%. For the same compound, the inhibition of growth at 0.001 % in data set [8] (concentration 0.001%) was determined as 43%. Moreover, the inhibition of growth at 0.01 % in data set [8] (concentration 0.01%) was 44%. In data set [8] (concentration 0.1%), the inhibition of growth at 0.1 % amounted to 100%. In addition, the inhibition of growth at 0.0001 % in data set [9] (concentration 0.0001%) came out at 0%. Moreover, the inhibition of growth at 0.001 % in data set [9] (concentration 0.001%) was 56%. Further, the inhibition of growth at 0.01 % in data set [9] (concentration 0.01%) was 64%. Further, in data set [9] (concentration 0.1%), the inhibition of growth at 0.1 % was found to be 100%.
